According to the kinase profiling compilation of Christmann-Franck et al. (2016):

What was measured:
Assay in all cases: KINOMEscan competition binding
Conditions in all cases: compound 2.0 µM
[1] = test system: ABL1 (human), P00519 [E255K]
AKT1 (human) = AKT1 (human) (UniProt P31749)
CAMK1D (human) = CAMK1D (human) (UniProt Q8IU85)
CASK (human) = CASK (human) (UniProt O14936)
CDK2 (human) = CDK2 (human) (UniProt P24941)
CSNK1G2 (human) = CSNK1G2 (human) (UniProt P78368)
DSTYK (human) = DSTYK (human) (UniProt Q6XUX3)
[2] = test system: EGFR (human), P00533 [P753S; 747-752 del]
EPHA7 (human) = EPHA7 (human) (UniProt Q15375)
FGFR3 (human) = FGFR3 (human) (UniProt P22607)
[3] = test system: FLT3 (human), P36888 [N841I]
FYN (human) = FYN (human) (UniProt P06241)
GRK7 (human) = GRK7 (human) (UniProt Q8WTQ7)
HUNK (human) = HUNK (human) (UniProt P57058)
IRAK1 (human) = IRAK1 (human) (UniProt P51617)
ITK (human) = ITK (human) (UniProt Q08881)
LCK (human) = LCK (human) (UniProt P06239)
LIMK2 (human) = LIMK2 (human) (UniProt P53671)
LRRK2 (human) = LRRK2 (human) (UniProt Q5S007)
MAK (human) = MAK (human) (UniProt P20794)
MARK1 (human) = MARK1 (human) (UniProt Q9P0L2)
MATK (human) = MATK (human) (UniProt P42679)
MET (human) = MET (human) (UniProt P08581)
[4] = test system: MET (human), P08581 [M1250T]
NEK3 (human) = NEK3 (human) (UniProt P51956)
[5] = test system: PIK3CA (human), P42336 [H1047L]
PKMYT1 (human) = PKMYT1 (human) (UniProt Q99640)
PRKCI (human) = PRKCI (human) (UniProt P41743)
PRKCQ (human) = PRKCQ (human) (UniProt Q04759)
PRKX (human) = PRKX (human) (UniProt P51817)
[6] = test system: RET (human), P07949 [V804L]
RIOK1 (human) = RIOK1 (human) (UniProt Q9BRS2)
ROCK1 (human) = ROCK1 (human) (UniProt Q13464)
SRC (human) = SRC (human) (UniProt P12931)
STK32B (human) = STK32B (human) (UniProt Q9NY57)
STK39 (human) = STK39 (human) (UniProt Q9UEW8)
SYK (human) = SYK (human) (UniProt P43405)
TAOK1 (human) = TAOK1 (human) (UniProt Q7L7X3)
TAOK2 (human) = TAOK2 (human) (UniProt Q9UL54)
TAOK3 (human) = TAOK3 (human) (UniProt Q9H2K8)
TBK1 (human) = TBK1 (human) (UniProt Q9UHD2)
TEC (human) = TEC (human) (UniProt P42680)
ULK2 (human) = ULK2 (human) (UniProt Q8IYT8)

GRK7 (human), sequence (Q8WTQ7 whole entry, looked up): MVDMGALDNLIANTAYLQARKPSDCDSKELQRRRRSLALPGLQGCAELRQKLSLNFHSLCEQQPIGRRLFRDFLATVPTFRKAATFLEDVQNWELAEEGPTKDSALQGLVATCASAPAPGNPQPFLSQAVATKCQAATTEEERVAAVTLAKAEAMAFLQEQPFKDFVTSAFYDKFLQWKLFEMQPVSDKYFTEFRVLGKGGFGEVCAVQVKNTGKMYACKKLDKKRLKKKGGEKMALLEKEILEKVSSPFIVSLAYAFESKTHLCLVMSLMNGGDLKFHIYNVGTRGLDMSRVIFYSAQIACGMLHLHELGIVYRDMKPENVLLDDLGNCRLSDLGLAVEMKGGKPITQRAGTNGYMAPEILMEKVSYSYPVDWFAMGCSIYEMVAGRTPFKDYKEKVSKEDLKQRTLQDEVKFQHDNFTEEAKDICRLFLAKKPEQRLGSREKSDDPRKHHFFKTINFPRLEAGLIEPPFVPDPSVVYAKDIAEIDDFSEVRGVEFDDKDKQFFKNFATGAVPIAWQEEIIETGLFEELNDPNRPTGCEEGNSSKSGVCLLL
ITK (human), sequence (Q08881 whole entry, looked up): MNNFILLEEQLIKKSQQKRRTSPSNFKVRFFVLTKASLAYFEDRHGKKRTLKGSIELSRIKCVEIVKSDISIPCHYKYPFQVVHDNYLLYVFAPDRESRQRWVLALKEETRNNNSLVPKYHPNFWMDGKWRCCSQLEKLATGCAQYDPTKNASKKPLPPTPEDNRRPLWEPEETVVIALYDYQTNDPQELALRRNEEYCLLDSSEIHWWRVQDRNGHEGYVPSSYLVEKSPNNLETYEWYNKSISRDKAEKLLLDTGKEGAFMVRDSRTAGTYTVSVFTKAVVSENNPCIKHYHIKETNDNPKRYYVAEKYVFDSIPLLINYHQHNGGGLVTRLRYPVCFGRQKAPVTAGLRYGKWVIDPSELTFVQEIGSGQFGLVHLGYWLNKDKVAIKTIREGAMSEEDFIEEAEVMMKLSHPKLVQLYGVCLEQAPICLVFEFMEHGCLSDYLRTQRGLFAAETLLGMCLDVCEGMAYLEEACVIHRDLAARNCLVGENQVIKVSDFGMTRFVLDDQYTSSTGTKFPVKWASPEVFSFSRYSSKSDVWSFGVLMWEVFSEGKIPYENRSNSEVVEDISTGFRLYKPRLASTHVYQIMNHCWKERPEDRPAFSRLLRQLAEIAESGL
FGFR3 (human), sequence (P22607 whole entry, looked up): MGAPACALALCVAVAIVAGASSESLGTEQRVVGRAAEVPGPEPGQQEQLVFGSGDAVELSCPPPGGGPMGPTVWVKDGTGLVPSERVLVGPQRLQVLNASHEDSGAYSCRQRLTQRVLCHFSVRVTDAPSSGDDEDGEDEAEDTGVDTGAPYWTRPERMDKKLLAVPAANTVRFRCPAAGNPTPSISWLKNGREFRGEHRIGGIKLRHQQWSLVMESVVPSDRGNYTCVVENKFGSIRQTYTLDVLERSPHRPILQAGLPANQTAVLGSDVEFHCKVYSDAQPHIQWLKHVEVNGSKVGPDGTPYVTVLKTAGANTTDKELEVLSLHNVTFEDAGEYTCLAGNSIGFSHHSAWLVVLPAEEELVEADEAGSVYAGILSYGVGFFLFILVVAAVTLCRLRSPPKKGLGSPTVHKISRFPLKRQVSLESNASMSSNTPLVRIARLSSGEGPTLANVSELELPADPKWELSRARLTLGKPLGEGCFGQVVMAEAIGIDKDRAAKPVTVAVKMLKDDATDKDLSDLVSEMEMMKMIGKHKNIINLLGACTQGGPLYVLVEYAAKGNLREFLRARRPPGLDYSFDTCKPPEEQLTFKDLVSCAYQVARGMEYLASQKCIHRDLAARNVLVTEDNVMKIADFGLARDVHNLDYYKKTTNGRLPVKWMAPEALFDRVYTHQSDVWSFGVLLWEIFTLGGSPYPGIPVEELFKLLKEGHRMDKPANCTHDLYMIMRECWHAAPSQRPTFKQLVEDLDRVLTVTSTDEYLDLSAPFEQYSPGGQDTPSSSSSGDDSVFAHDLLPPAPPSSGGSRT
CAMK1D (human), sequence (Q8IU85 whole entry, looked up): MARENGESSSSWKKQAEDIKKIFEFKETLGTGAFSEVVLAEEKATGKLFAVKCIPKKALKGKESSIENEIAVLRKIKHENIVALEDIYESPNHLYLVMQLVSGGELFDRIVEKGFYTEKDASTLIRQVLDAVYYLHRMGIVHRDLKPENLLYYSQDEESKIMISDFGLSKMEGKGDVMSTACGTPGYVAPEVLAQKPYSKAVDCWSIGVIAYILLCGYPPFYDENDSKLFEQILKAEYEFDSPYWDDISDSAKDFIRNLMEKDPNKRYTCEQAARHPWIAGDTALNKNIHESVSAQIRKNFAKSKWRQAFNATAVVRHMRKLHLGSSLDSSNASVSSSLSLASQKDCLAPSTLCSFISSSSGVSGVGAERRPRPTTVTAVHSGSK
TAOK1 (human), sequence (Q7L7X3 whole entry, looked up): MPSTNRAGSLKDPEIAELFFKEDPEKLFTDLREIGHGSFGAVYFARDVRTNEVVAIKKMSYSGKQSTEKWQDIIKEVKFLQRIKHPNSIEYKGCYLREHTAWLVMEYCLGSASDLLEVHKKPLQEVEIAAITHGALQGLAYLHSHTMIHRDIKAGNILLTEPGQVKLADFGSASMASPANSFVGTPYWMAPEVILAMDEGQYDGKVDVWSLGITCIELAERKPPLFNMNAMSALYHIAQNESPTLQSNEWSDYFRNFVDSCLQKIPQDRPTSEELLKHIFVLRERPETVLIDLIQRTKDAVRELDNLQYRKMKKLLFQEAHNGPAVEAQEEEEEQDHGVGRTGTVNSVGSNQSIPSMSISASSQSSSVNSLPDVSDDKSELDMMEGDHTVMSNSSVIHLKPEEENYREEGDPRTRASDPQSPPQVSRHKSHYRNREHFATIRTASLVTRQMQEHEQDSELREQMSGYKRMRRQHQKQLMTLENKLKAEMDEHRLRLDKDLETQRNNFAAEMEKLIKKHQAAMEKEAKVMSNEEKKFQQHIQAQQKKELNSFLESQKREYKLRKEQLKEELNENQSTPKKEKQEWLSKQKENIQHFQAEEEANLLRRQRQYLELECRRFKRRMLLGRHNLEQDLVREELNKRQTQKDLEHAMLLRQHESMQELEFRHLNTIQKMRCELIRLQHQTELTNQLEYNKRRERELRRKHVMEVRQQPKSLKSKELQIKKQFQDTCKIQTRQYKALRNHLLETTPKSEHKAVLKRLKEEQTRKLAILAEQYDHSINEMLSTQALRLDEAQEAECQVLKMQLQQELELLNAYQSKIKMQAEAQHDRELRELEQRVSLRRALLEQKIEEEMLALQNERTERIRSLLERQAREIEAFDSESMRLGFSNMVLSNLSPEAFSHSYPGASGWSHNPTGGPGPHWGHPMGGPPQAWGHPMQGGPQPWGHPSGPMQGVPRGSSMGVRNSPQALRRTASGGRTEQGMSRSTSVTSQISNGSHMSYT
TAOK3 (human), sequence (Q9H2K8 whole entry, looked up): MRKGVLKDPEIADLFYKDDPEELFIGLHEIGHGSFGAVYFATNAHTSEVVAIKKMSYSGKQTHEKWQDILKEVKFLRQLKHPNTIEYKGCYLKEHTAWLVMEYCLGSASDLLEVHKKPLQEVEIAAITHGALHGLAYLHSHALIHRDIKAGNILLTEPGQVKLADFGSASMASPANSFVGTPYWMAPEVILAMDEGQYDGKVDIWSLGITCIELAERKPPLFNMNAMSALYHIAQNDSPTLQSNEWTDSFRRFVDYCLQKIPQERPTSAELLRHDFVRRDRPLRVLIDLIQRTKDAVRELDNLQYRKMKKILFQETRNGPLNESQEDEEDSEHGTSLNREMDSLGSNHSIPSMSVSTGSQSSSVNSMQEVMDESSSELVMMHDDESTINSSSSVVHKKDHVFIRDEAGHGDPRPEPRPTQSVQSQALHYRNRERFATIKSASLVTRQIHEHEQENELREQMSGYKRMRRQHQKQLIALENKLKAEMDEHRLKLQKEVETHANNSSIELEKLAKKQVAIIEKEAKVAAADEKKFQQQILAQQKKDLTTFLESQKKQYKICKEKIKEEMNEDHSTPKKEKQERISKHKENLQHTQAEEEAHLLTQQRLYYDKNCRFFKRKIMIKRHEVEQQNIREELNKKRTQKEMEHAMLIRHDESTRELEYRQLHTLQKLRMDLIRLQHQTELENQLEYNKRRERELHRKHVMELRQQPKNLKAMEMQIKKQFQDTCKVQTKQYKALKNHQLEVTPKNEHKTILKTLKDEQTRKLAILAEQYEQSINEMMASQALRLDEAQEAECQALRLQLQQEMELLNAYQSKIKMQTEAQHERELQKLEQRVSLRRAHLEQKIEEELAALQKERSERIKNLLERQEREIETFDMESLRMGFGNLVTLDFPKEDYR
PRKCI (human), sequence (P41743 whole entry, looked up): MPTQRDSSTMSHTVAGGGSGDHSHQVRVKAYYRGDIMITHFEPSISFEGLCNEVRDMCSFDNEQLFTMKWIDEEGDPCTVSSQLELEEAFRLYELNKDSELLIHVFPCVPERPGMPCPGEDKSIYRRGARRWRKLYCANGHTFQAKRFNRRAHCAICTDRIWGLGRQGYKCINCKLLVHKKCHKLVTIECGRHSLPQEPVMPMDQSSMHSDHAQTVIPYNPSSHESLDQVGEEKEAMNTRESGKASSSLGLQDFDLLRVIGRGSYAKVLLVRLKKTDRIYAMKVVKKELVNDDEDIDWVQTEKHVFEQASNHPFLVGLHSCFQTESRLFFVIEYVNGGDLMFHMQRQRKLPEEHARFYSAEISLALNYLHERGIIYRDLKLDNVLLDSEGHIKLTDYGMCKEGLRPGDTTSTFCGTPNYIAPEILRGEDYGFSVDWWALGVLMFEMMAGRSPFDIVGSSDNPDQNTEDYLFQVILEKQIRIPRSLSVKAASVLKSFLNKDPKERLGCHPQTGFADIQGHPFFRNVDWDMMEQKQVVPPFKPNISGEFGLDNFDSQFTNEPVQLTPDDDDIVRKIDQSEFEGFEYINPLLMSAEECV

What does the source list for `N#Cc1ccc2ncnc(NCCc3ccc4ccccc4c3)c2c1`?
kinase still bound, per cent of control [1]: 100%; kinase still bound, per cent of control (AKT1 (human)): 81%; kinase still bound, per cent of control (CAMK1D (human)): 100%; kinase still bound, per cent of control (CASK (human)): 100%; kinase still bound, per cent of control (CDK2 (human)): 93%; kinase still bound, per cent of control (CSNK1G2 (human)): 87%; kinase still bound, per cent of control (DSTYK (human)): 61%; kinase still bound, per cent of control [2]: 89%; kinase still bound, per cent of control (EPHA7 (human)): 93%; kinase still bound, per cent of control (FGFR3 (human)): 100%; kinase still bound, per cent of control [3]: 95%; kinase still bound, per cent of control (FYN (human)): 98%; kinase still bound, per cent of control (GRK7 (human)): 100%; kinase still bound, per cent of control (HUNK (human)): 100%; kinase still bound, per cent of control (IRAK1 (human)): 98%; kinase still bound, per cent of control (ITK (human)): 80%; kinase still bound, per cent of control (LCK (human)): 84%; kinase still bound, per cent of control (LIMK2 (human)): 94%; kinase still bound, per cent of control (LRRK2 (human)): 85%; kinase still bound, per cent of control (MAK (human)): 99%; kinase still bound, per cent of control (MARK1 (human)): 83%; kinase still bound, per cent of control (MATK (human)): 100%; kinase still bound, per cent of control (MET (human)): 100%; kinase still bound, per cent of control [4]: 73%; kinase still bound, per cent of control (NEK3 (human)): 100%; kinase still bound, per cent of control [5]: 100%; kinase still bound, per cent of control (PKMYT1 (human)): 100%; kinase still bound, per cent of control (PRKCI (human)): 100%; kinase still bound, per cent of control (PRKCQ (human)): 100%; kinase still bound, per cent of control (PRKX (human)): 93%; kinase still bound, per cent of control [6]: 92%; kinase still bound, per cent of control (RIOK1 (human)): 71%; kinase still bound, per cent of control (ROCK1 (human)): 100%; kinase still bound, per cent of control (SRC (human)): 94%; kinase still bound, per cent of control (STK32B (human)): 97%; kinase still bound, per cent of control (STK39 (human)): 98%; kinase still bound, per cent of control (SYK (human)): 100%; kinase still bound, per cent of control (TAOK1 (human)): 96%; kinase still bound, per cent of control (TAOK2 (human)): 83%; kinase still bound, per cent of control (TAOK3 (human)): 79%; kinase still bound, per cent of control (TBK1 (human)): 100%; kinase still bound, per cent of control (TEC (human)): 100%; kinase still bound, per cent of control (ULK2 (human)): 100%
